# Reference: PubChem BioAssay (NCI)
#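 Test compounds were applied to cells in 96-well plates for 48 hours at 5 doses. GI50 marks 50% less growth. At the TGI there is no net growth.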
# Key:
# Experiment in all cases: NCI anticancer screen, dose series, 48 h
# OVCAR-5 ovarian = tested on: OVCAR-5 ovarian
# HOP-62 NSCLC = tested on: HOP-62 NSCLC
# CAKI-1 renal = tested on: CAKI-1 renal
# NCI-H23 lung = tested on: NCI-H23 lung
# NCI-H522 lung = tested on: NCI-H522 lung
# MOLT-4 leukemia = tested on: MOLT-4 leukemia
# HS 578T breast = tested on: HS 578T breast
# DU-145 prostate = tested on: DU-145 prostate
# SK-OV-3 ovarian = tested on: SK-OV-3 ovarian
# OVCAR-3 ovarian = tested on: OVCAR-3 ovarian
Compound,GI50 (OVCAR-5 ovarian),TGI (OVCAR-5 ovarian),GI50 (HOP-62 NSCLC),TGI (HOP-62 NSCLC),GI50 (CAKI-1 renal),TGI (CAKI-1 renal),GI50 (NCI-H23 lung),TGI (NCI-H23 lung),GI50 (NCI-H522 lung),TGI (NCI-H522 lung),GI50 (MOLT-4 leukemia),TGI (MOLT-4 leukemia),GI50 (HS 578T breast),TGI (HS 578T breast),GI50 (DU-145 prostate),TGI (DU-145 prostate),GI50 (SK-OV-3 ovarian),TGI (SK-OV-3 ovarian),GI50 (OVCAR-3 ovarian),TGI (OVCAR-3 ovarian)
Nc1nc2c(s1)CCc1c-2c(Br)n(Cc2ccccc2)c1Br,19.8 µM,39.3 µM,18 µM,33.6 µM,3.14 µM,12.1 µM,13.8 µM,40.8 µM,2.04 µM,4.63 µM,2.33 µM,26.7 µM,25.7 µM,93.8 µM,16.1 µM,37.3 µM,23.6 µM,53.7 µM,3.9 µM,13.8 µM
COc1c(C(=O)c2ccc([N+](=O)[O-])cc2)cc(C(C)(C)C)cc1C(C)(C)C,,> 100 µM,,> 100 µM,,> 100 µM,,> 100 µM,,56.9 µM,,39.9 µM,,,,,,> 100 µM,,
CN(C)c1ccc(N=C2C=CC(=[N+](C)C)C=C2)cc1,20.4 µM,76.6 µM,4.21 µM,> 100 µM,12.1 µM,41.8 µM,3.52 µM,29.4 µM,1.79 µM,4.95 µM,,,3.28 µM,29.1 µM,22.3 µM,> 100 µM,15.5 µM,78.6 µM,4.99 µM,17.7 µM
CCOC(=O)CSC(=O)NCCCl,,> 100 µM,,> 100 µM,,> 100 µM,,> 100 µM,,> 100 µM,> 100 µM,> 100 µM,,,,,,> 100 µM,,> 100 µM
COc1ccc(C2CC(c3cc(C)ccc3O)=NC(N)=N2)cc1 (configuration not stated),,> 100 µM,,> 100 µM,,> 100 µM,,> 100 µM,,> 100 µM,,> 100 µM,,,,,,> 100 µM,,> 100 µM
CCOC(=O)C1C2CCC(C2)C1(CCl)C(=O)OCC (configuration not stated),,> 100 µM,,> 100 µM,,> 100 µM,,> 100 µM,,,,> 100 µM,,,,,,> 100 µM,,> 100 µM
N#Cc1c2c(c(N=P(c3ccccc3)(c3ccccc3)c3ccccc3)n3c1nc1ccccc13)CCCC2,,,,71.5 µM,,> 100 µM,,,,41.8 µM,,64.2 µM,,,,,,> 100 µM,,86.1 µM
CCCCCCCCCCCCCC(=O)OCC1OC(n2cc(F)c(=O)[nH]c2=O)C(NC(=O)OCc2ccccc2)C(OC(=O)CCCCCCCCCCCCC)C1O (configuration not stated),,> 100 µM,,> 100 µM,,> 100 µM,,> 100 µM,,> 100 µM,,> 100 µM,,,,,,> 100 µM,,> 100 µM
COc1ccc2c(CN3CCC(C(=O)O)CC3)cc3cc4c(cc3c2c1)OCO4,2.55 µM,6.87 µM,2.71 µM,11.4 µM,2.44 µM,7.8 µM,2.53 µM,8.9 µM,,,3.05 µM,9.73 µM,3.97 µM,25.8 µM,3.87 µM,> 100 µM,,,2.85 µM,9.64 µM
NS(=O)(=O)c1ccc(NC2=CC(=O)C(=O)c3ccccc32)cc1,,> 100 µM,,> 100 µM,,> 100 µM,,> 100 µM,,> 100 µM,,> 100 µM,,,,,,> 100 µM,,> 100 µM
